Where no end group is shown, it is not given here.
Experiments:
[1] = tested on: low grade prostate cancer (Gleason grade 6); assay: Clinical study, Example 6: cancer treatment with new multifocal and an increase in Gleason grade primary pattern; assay type: in vivo, human; details: for % Imp.: cancer treatment with new multifocal and an increase in Gleason grade primary pattern, entire prostate: vs control active surveillance
Experimental: (§1) In a series of clinical studies a total of 146 men with low grade prostate cancer (Gleason grade 6) were treated in the following manner. Patients were randomized and treated with a transrectal intraprostatic single injection of a composition comprising 2.5 mg FT (n=49), or a composition comprising 15 mg FT (n=48), or were subject to control active surveillance (n=49). After the first follow-up biopsy at 45 days post-randomization, 18 patients in the control active surveillance group crossed over to a single administration of a composition in which 10 patients received 2.5 mg FT, and 8 patients received 15 mg FT. Patients were followed for 5 years including biopsies at baseline, 45 days, 18, 36, and 48 months, and urological evaluations with PSA every 6 months. Patients with Gleason grade increase or who elected surgical or radiotherapeutic intervention exited the study and were still included in the data analysis. Percentage of normal biopsies in the baseline focus quadrant and median tumor grade and volume were assessed; progression was measured by clinical and pathological outcomes including Gleason grade, and Gleason grade primary pattern, in the entire prostate sampled as well as for the treated prostate lobe. Interventions associated with Gleason grade increase as well as total incidence for any conventional surgical intervention (e.g., surgery, radiotherapy, and/or chemotherapy) was assessed.

[2] = tested on: low grade prostate cancer (Gleason grade 6); assay: Clinical study, Example 7: cancer treatment with new multifocal with increased Gleason grade in the hemi-prostate; assay type: in vivo, human; details: for % Imp.: cancer treatment with new multifocal with increased Gleason grade in the hemi-prostate: vs control active surveillance
Experimental: as §1, with “assessed. This example evaluated the percentage of patients who had conventional cancer treatment (e.g., surgery, radiotherapy, and/or chemotherapy), and who and who had multifocal prostate cancer in the lobe (or hemi-prostate) in which the foci were initially treated with Gleason upgrade (cancer treatment with new multifocal with increased Gleason grade in the hemi-prostate).” for “assessed.”

[3] = tested on: prostate glandular epithelial cells; assay: In vitro tissue culture genetic array and cell effects; assay type: cell-based
Description: (§2) Use of FT is a preferred embodiment. FT is a new molecular entity which in vitro stimulates caspase pathways (activation of caspases 7, 8, and 10, caspase recruitment domains 6, 11, and 14, and DIABLO), tumor necrosis factor pathways (activation of TNF1, TNFSF6, TNFSF8, TNFSF9, CD70 ligands, and TNFRSF19L, TNFRSF25, TRAF2, TRAF3, TRAF4, TRAF6 receptors), and BCL pathways (activation of BIK, HRK, BCL2L10 and BCL3) in prostate glandular epithelial cells, based on tissue culture genetic array data. […] The apoptotic process leads to typical ultrastructural progressive changes of membranous disruption and swelling, progressively deepening nuclear invaginations with eventual membranous bleb formations and cell death and fragmentation into apoptotic bodies.

injected areas = assay: Histology of injected areas after treatment; assay type: in vivo; details: up to several weeks after treatment
Description: as §2

[4] = FT 2.5 mg, <=36 mos from treatment
[5] = FT 2.5 mg, <=48 mos from treatment
[6] = FT 15 mg, <=18 mos from treatment
[7] = FT 15 mg, <=36 mos from treatment
[8] = FT 15 mg, <=48 mos from treatment
[9] = Pooled FT (2.5 mg and 15 mg), <=18 mos from treatment
[10] = Pooled FT (2.5 mg and 15 mg), <=18 mos
[11] = Pooled FT (2.5 mg and 15 mg), <=36 mos from treatment
[12] = Pooled FT (2.5 mg and 15 mg), <=36 mos
[13] = Pooled FT (2.5 mg and 15 mg), <=48 mos from treatment
[14] = Pooled FT (2.5 mg and 15 mg), <=48 mos
[15] = in vitro, tissue culture genetic array data

fexapotide triflutate (IDQQVLSRIKLEIKRCL; also: trifluoroacetate salt) [FT]
percentage of patients: cancer treatment with new multifocal and an increase in Gleason grade primary pattern, entire prostate [1, 4]: 0 (p = 0.006) %
% Imp.: cancer treatment with new multifocal and an increase in Gleason grade primary pattern, entire prostate ([1]; FT 2.5 mg, <=36 mos): 100%
percentage of patients: cancer treatment with new multifocal and an increase in Gleason grade primary pattern, entire prostate [1, 5]: 0 (p = 0.0040) %
% Imp.: cancer treatment with new multifocal and an increase in Gleason grade primary pattern, entire prostate ([1]; FT 2.5 mg, <=48 mos): 100%
percentage of patients: cancer treatment with new multifocal and an increase in Gleason grade primary pattern, entire prostate [1, 6]: 2.6 (p = 0.06) %
% Imp.: cancer treatment with new multifocal and an increase in Gleason grade primary pattern, entire prostate ([1]; FT 15 mg, <=18 mos): 83.5%
percentage of patients: cancer treatment with new multifocal and an increase in Gleason grade primary pattern, entire prostate [1, 7]: 3.6 (p = 0.04) %
% Imp.: cancer treatment with new multifocal and an increase in Gleason grade primary pattern, entire prostate ([1]; FT 15 mg, <=36 mos): 84.7%
percentage of patients: cancer treatment with new multifocal and an increase in Gleason grade primary pattern, entire prostate [1, 8]: 4.2 (p = 0.019) %
% Imp.: cancer treatment with new multifocal and an increase in Gleason grade primary pattern, entire prostate ([1]; FT 15 mg, <=48 mos): 86.6%
percentage of patients: cancer treatment with new multifocal and an increase in Gleason grade primary pattern, entire prostate [1, 9]: 1.3 (p = 0.04) %
% Imp.: cancer treatment with new multifocal and an increase in Gleason grade primary pattern, entire prostate [1, 10]: 91.8%
percentage of patients: cancer treatment with new multifocal and an increase in Gleason grade primary pattern, entire prostate [1, 11]: 1.7 (p = 0.002) %
% Imp.: cancer treatment with new multifocal and an increase in Gleason grade primary pattern, entire prostate [1, 12]: 92.8%
percentage of patients: cancer treatment with new multifocal and an increase in Gleason grade primary pattern, entire prostate [1, 13]: 2.1 (p = 0.001) %
% Imp.: cancer treatment with new multifocal and an increase in Gleason grade primary pattern, entire prostate [1, 14]: 93.3%
percentage of patients: cancer treatment with new multifocal with increased Gleason grade in the hemi-prostate ([2]; FT 2.5 mg, <=18 mos from treatment): 4.9%
% Imp.: cancer treatment with new multifocal with increased Gleason grade in the hemi-prostate ([2]; FT 2.5 mg, <=18 mos): 69%
percentage of patients: cancer treatment with new multifocal with increased Gleason grade in the hemi-prostate [2, 4]: 10%
% Imp.: cancer treatment with new multifocal with increased Gleason grade in the hemi-prostate ([2]; FT 2.5 mg, <=36 mos): 57.4%
percentage of patients: cancer treatment with new multifocal with increased Gleason grade in the hemi-prostate [2, 5]: 17.4%
% Imp.: cancer treatment with new multifocal with increased Gleason grade in the hemi-prostate ([2]; FT 2.5 mg, <=48 mos): 44.4%
percentage of patients: cancer treatment with new multifocal with increased Gleason grade in the hemi-prostate [2, 6]: 5.1%
% Imp.: cancer treatment with new multifocal with increased Gleason grade in the hemi-prostate ([2]; FT 15 mg, <=18 mos): 67.7%
percentage of patients: cancer treatment with new multifocal with increased Gleason grade in the hemi-prostate [2, 7]: 7.1%
% Imp.: cancer treatment with new multifocal with increased Gleason grade in the hemi-prostate ([2]; FT 15 mg, <=36 mos): 69.8%
percentage of patients: cancer treatment with new multifocal with increased Gleason grade in the hemi-prostate [2, 8]: 8.3%
% Imp.: cancer treatment with new multifocal with increased Gleason grade in the hemi-prostate ([2]; FT 15 mg, <=48 mos): 73.5%
percentage of patients: cancer treatment with new multifocal with increased Gleason grade in the hemi-prostate [2, 9]: 5%
% Imp.: cancer treatment with new multifocal with increased Gleason grade in the hemi-prostate [2, 10]: 68.4%
percentage of patients: cancer treatment with new multifocal with increased Gleason grade in the hemi-prostate [2, 11]: 8.6%
% Imp.: cancer treatment with new multifocal with increased Gleason grade in the hemi-prostate [2, 12]: 63.4%
percentage of patients: cancer treatment with new multifocal with increased Gleason grade in the hemi-prostate [2, 13]: 12.8%
% Imp.: cancer treatment with new multifocal with increased Gleason grade in the hemi-prostate [2, 14]: 59.1%
cellular effects [3]: selectively causes loss of cell membrane integrity, mitochondrial metabolic arrest, depletion of RNA, DNA lysis and aggregation, and cell fragmentation and cell loss
BCL pathways (activation of BIK, HRK, BCL2L10 and BCL3) [3, 15]: stimulates
caspase pathways (activation of caspases 7, 8, and 10, caspase recruitment domains 6, 11, and 14, and DIABLO) [3, 15]: stimulates
tumor necrosis factor pathways (activation of TNF1, TNFSF6, TNFSF8, TNFSF9, CD70 ligands, and TNFRSF19L, TNFRSF25, TRAF2, TRAF3, TRAF4, TRAF6 receptors) [3, 15]: stimulates
histological changes in injected areas (injected areas): typical apoptotic changes with positive immunohistochemical staining of markers for apoptosis are found throughout the injected areas

Source: patent US11231421B2, “Methods of treating multifocal cancer” (NYMOX CORPORATION, priority 2019, dated 2022)
